Where two headings read alike, the source gives them in different places.
Assays:
Type in all cases: cell-based
HIV-1LAI Wild Type = test: AlamarBlue viability assay, HIV-1LAI-infected MT4 cells; details: 10% FCS
Protocol: For the batch of a 96-well MTP, 3 million PBLs are pelletized, suspended in 1 ml of RPMI 1640 medium/10% FCS/2 mmol of L-glutamine/1% Pen/Strep, and incubated together with a suitable amount of HIV-1LA1 (NIH AIDS Research & Reference Reagent Program, Germantown, USA) for 2 hours at 37° C. (pellet infection). Non-adsorbed viruses are then washed out with PBS, the infected cells are pelletized again, and suspended in 18 ml of RPMI 1640 medium/10% FCS/2 mmol of L-glutamine/1% Pen/Strep/interleukin-2 (40 U/ml). Therefrom, 180 μl per well is pipetted into a white 96-well MTP in 20 μl of test substance in a suitable dilution. As an alternative, after preparation of the substance dilutions, the HIV is added by pipetting in the MTP together with the cells and is no longer washed out (supernatant infection). In order to avoid boundary effects, the edge wells of the MTP are not used for substance dilutions. The second vertical row of the MTP contains only infected cells (virus control), and the eleventh vertical row contains only non-infected cells (cell control) in each case in RPMI 1640 medium/10% FCS/2 mmol of L-glutamine/1% Pen/Strep/interleukin-2 (40 U/ml). The other wells of the MTP contain the compounds according to the invention in different concentrations starting from the third vertical row, from which dilution of the test substances is carried out 3^7 times in three steps up to the tenth vertical row. The test substances are dissolved in DMSO, whereby the DMSO final concentration in the test batch is ultimately 1%. The test batches are incubated at 37° C./5% CO2. After 5 and 7 days, in each case 50 μl of cell-free supernatant is drawn off from each well in order to determine the amount of p24 contained by means of p24 ELISA (HIV-1 p24^CA Antigen Capture Assay Kit, NCI-Frederick Cancer Research and Development Center, Frederick, USA). From the resulting values of the photometric analysis (450/620 nm), the EC50 values of the test substances are determined as the concentration of the treated infected cells, in which the amount of p24 is 50% of the untreated infected cells.
As an alternative, MT4 cells are used for testing test substances instead of PBLs. HIV-1LA1-infected MT4 cells (MOI 0.01, supernatant infection) are incubated according to the above-described pattern in RPMI 1640 medium with 2% or 10% FCS/2 mmol of L-glutamine/1% Pen/Strep in the presence of test substances for 5 days at 37° C./5% CO2 (20 μl of substance dilution and 80 μl of cells/virus per well). Then, 10 μl of AlamarBlue (Invitrogen, Karlsruhe, Germany) is added to each well, and MTPs are incubated for 3 hours at 37° C., before the fluorimetric analysis is done (544/590 nm). The resulting values are approximately 30,000 in the case of untreated, non-infected cells, and approximately 6,000 in the case of untreated infected cells. In the low concentration range, the EC50 values of the test substances are determined as the concentration of the treated infected cells, in which the fluorescence is 50% of the untreated non-infected cells (in each case relative to the values of the untreated infected cells). In addition, in the high concentration range, the CC50 values of the test substances are determined as the concentration of the treated infected cells, in which the fluorescence is 50% of the untreated, non-infected cells (in each case relative to the values of the untreated infected cells).

HIV-1NL4-3 Wild Type = test: Luminescence reduction assay, MT4 cells infected with HIV-1NL4-3 luciferase reporter virus, wild type; details: 2% FCS
Source text: (§1) For this assay, HIV-1NL4-3 reporter viruses are used, which carry the luciferase164 gene (lu164) instead of the nef gene. The viruses are generated by transfection of 293T cells with the corresponding proviral pNL4-3 plasmid (Lipofectamine Reagent, Invitrogen, Karlsruhe, Germany). Starting from the proviral plasmid-DNA, viruses with defined resistance mutations in the reverse transcriptase gene are produced with the “QuikChange II XL Site-Directed Mutagenesis Kit” (Stratagene, Cedar Creek, Tex., USA). Among other things, the following mutations are generated: A98G, A98G-K103N-V108I, A98S, F227C, F227L, G190A, G190S, K101E, K101Q-K103N, K103N, K103N-F227L, K103N-G190A, K103N-G190S, K103N-M230L, K103N-N348I, K103N-P225H, K103N-V108I, K103N-V108I-P225H, K103N-V179F-Y181C, K103N-Y181C, K103N-Y181C-G190A, L100I, L100I-K103N, L100I-K103N-V179I-Y181C, L100I-K103N-Y181C, L234I, N348I, P225H, P236L, V106A, V106A-E138K, V106A-F227C, V106A-F227L, V106I, V106I-Y188L, V106M, V108I, V179F-Y181C, V179I, V179I-Y181C, Y181C, Y181C-G190A, Y181C-M230L, Y181I, Y188L. MT4 cells infected with these reporter viruses (NIH AIDS Research and Reference Reagent Program) secrete luciferase into the medium, which makes possible the luminometric quantification of the virus replication.
(§2) For the batch of a 96-well MTP, 3 million MT4 cells are pelletized, suspended in 1 ml of RPMI 1640 medium without phenol red (Invitrogen, Karlsruhe, Germany)/10% FCS/2 mmol of L-glutamine/1% Pen/Strep (Invitrogen, Karlsruhe, Germany), and incubated together with a suitable amount of the corresponding HIV-1NL4-3 reporter virus for 2 hours at 37° C. (pellet infection). Non-adsorbed viruses are then washed out with PBS, the infected cells are pelletized again, and suspended in 8 ml of RPM 11640 medium without phenol red/2% or 10% FCS/2 mmol of L-glutamine/1% Pen/Strep. Therefrom, 80 μl per well is pipetted into a white 96-well MTP in 20 μl of test substance in a suitable dilution. In order to avoid boundary effects, the edge wells of the MTP are not used for substance dilutions. The second vertical row of the MTP contains only infected cells (virus control), and the eleventh vertical row contains only non-infected cells (cell control) in each case in RPMI 1640 medium without phenol red/2% or 10% FCS/2 mmol of L-glutamine/1% Pen/Strep. The other wells of the MTP contain the compounds according to the invention in different concentrations starting from the third vertical row, from which dilution of the test substances is carried out 3^7 times in three steps up to the tenth vertical row. The test substances are dissolved in DMSO, whereby the DMSO final concentration in the test batch is ultimately 1%. The test batches are incubated for 5 days at 37° C./5% CO2, and are luminometrically evaluated after the addition of 15 μl of Lu164-buffer (65 mmol of NaCl, 300 mmol of MES, pH 5.8, 5 mmol of glutathione and 1:200 coelenterazine (5 mg/ml in 30 μM of glutathione/DMSO) (P.J.K. GmbH, Kleinblittersdorf, Germany)). In the virus control, the resulting values are in the range of 1 million RLUs (relative light units), and in the cell control, the resulting values are 300 to 400 RLUs. The EC50 values of the test substances are determined as the concentration of the treated infected cells, in which the virus replication measured in RLUs is 50% of the untreated infected cells.

HIV-1NL4-3 K103N-Y181C = test: Luminescence reduction assay, MT4 cells infected with HIV-1NL4-3 luciferase reporter virus, RT mutant K103N-Y181C
Source text: as §1, §2

[1] = Human immunodeficiency virus 1, MT4, MT4 cells
[2] = Human immunodeficiency virus 1, MT4, read-out: EC50 (μM) MT4 Cells HIV-1NL4-3 K103N-Y181C 2% FCS, MT4 cells, HIV-1NL4-3 K103N-Y181C, 2% FCS

| Structure (SMILES) | EC50 (HIV-1LAI Wild Type; [1]) [µM] | EC50 (HIV-1NL4-3 Wild Type; [1]) [µM] | EC50 (HIV-1NL4-3 K103N-Y181C; [2]) [µM] | EC50 (HIV-1LAI Wild Type; MT4 cells) [µM] | EC50 (HIV-1NL4-3 Wild Type; MT4 cells) [µM] | EC50 (HIV-1NL4-3 K103N-Y181C; read-out: EC50 (μM) MT4 Cells HIV-1NL4-3 K103N-Y181C 2% FCS, MT4 cells, HIV-1NL4-3 K103N-Y181C, 2% FCS) [µM] |
| --- | --- | --- | --- | --- | --- | --- |
| O=C1CN(C(=O)c2cc(-c3cc(F)cc(Cl)c3)n(-c3cccnc3)n2)CN1 [Example 3, 1-{[5-(3-Chloro-5-fluorophenyl)-1-(pyridin-3-yl)-1H I-pyrazol-3-yl]carbonyl}imidazolidin-4-one] | 0.028 | 0.006 | 0.067 | – | – | – |
| O=C(c1cc(-c2cc(Br)cc(OC(F)(F)F)c2)n(-c2ccc(Cl)nc2)n1)N1CCSC1 [Example 36, {5-[3-Bromo-5-(trifluoromethoxy)phenyl]-1-(6-chloropyridin-3-yl)-1H-pyrazol-3-yl}(1,3-thiazolidin-3-yl)methanone] | 2.37 | 0.149 | 0.08 | – | – | – |
| Cc1cc(-n2nc(C(=O)N3CC[S+]([O-])C3)cc2-c2cc(F)cc(Cl)c2)ccn1 (stereo not drawn) [Example 24, [5-(3-Chloro-5-fluorophenyl)-1-(2-methylpyridin-4-yl)-1H-pyrazol-3-yl](1-oxido-1,3-thiazolidin-3-yl)methanone] | 0.668 | 0.066 | > 3.3 | – | – | – |
| O=C1CN(C(=O)c2cc(-c3cncc(C(F)(F)F)c3)n(-c3ccc(F)c(Cl)c3)n2)CCN1 [Example 107] | 0.263 | 0.299 | 1.28 | – | – | – |
| O=C(c1cc(-c2cc(Cl)cc(OC(F)(F)F)c2)n(-c2cccnc2)n1)N1CC[S+]([O-])C1 (racemic) [Example 78, {5-[3-Chloro-5-(trifluoromethoxy)phenyl]-1-(pyridin-3-yl)-1H-pyrazol-3-yl}(1-oxido-1,3-thiazolidin-3-yl)methanone] | 0.367 | 0.078 | 0.277 | – | – | – |
| O=C1CN(C(=O)c2cc(-c3cc(Br)cc(OC(F)(F)F)c3)n(-c3cncc(F)c3)n2)CCN1 [Example 45, 4-({5-[3-Bromo-5-(trifluoromethoxy)phenyl]-1-(5-fluoropyridin-3-yl)-1H-pyrazol-3-yl}carbonyl)piperazin-2-one] | 0.55 | 0.095 | 0.232 | – | – | – |
| O=C(c1cc(-c2cc(F)cc(OC(F)(F)F)c2)n(-c2cccnc2)n1)N1CCSC1 [Example 59, {5-[3-Fluoro-5-(trifluoromethoxy)phenyl]-1-(pyridin-3-yl)-1H-pyrazol-3-yl}(1,3-thiazolidin-3-yl)methanone] | 2.78 | 0.256 | 1.11 | – | – | – |
| O=C1CN(C(=O)c2cc(-c3cncc(OC(F)F)c3)n(-c3ccc(F)c(Cl)c3)n2)CN1 [Example 105, 1-({1-(3-Chloro-4-fluorophenyl)-5-[5-(difluoromethoxy)pyridin-3-yl]-1H-pyrazol-3-yl}carbonyl)imidazolidin-4-one] | 0.116 | 0.018 | 0.007 | – | – | – |
| O=C(c1cc(-c2cc(F)cc(OC(F)(F)F)c2)n(-c2cccnc2)n1)N1CC[S+]([O-])C1 (racemic) [Example 60, {5-[3-Fluoro-5-(trifluoromethoxy)phenyl]-1-(pyridin-3-yl)-1H-pyrazol-3-yl}(1-oxido-1,3-thiazolidin-3-yl)methanone] | – | – | – | 0.997 | 0.077 | 0.621 |
| N#Cc1cc(OC(F)(F)F)cc(-c2cc(C(=O)N3CCNC(=O)C3)nn2-c2cccnc2)c1 [Example 89, 3-{3-[(3-Oxopiperazin-1-yl)carbonyl]-1-(pyridin-3-yl)-1H-pyrazol-5-yl}-5-(trifluoromethoxy)benzonitrile] | 0.129 | 0.258 | 0.523 | – | – | – |
| O=C1CN(C(=O)c2cc(-c3cc(F)cc(Br)c3)n(-c3ccnc(Cl)c3)n2)CN1 [Example 92, 1-{[5-(3-Bromo-5-fluorophenyl)-1-(2-chloropyridin-4-yl)-1H-pyrazol-3-yl]carbonyl}imidazolidin-4-one] | 0.026 | 0.005 | 0.033 | – | – | – |
| O=C1CN(C(=O)c2cc(-c3cc(F)cc(Cl)c3)n(-c3cncc(Cl)c3)n2)CN1 [Example 9, 1-{[5-(3-Chloro-5-fluorophenyl)-1-(5-chloropyridin-3-yl)-1H-pyrazol-3-yl]carbonyl}imidazolidin-4-one] | 0.149 | 0.035 | 0.32 | – | – | – |
| O=C1CN(C(=O)c2cc(-c3cc(Cl)cc(OC(F)F)c3)n(-c3cccnc3)n2)CN1 [Example 81, 1-({5-[3-Chloro-5-(difluoromethoxy)phenyl]-1-(pyridin-3-yl)-1H-pyrazol-3-yl}carbonyl)imidazolidin-4-one] | 0.015 | 0.003 | 0.008 | – | – | – |
| O=C(c1cc(-c2cc(F)cc(OCC(F)(F)F)c2)n(-c2cccnc2)n1)N1CC[S+]([O-])C1 (racemic) [Example 73, {5-[3-Fluoro-5-(2,2,2-trifluoroethoxy)phenyl]-1-(pyridin-3-yl)-1H-pyrazol-3-yl}(1-oxido-1,3-thiazolidin-3-yl)methanone] | 0.243 | 0.018 | 0.951 | – | – | – |

From patent US9296720B2, “Carboxamide-substituted heteroaryl-pyrazoles and the use thereof” (AiCuris GmbH & Co. KG, priority 2011, dated 2016)
